One experiment addresses T1, rat mGluR5 receptor (Rattus norvegicus, UniProt P31424).
T1 construct: expressed in transfected cells; host or cells: HEK-293
As to the kind of experiment: [3H]-MPEP binding HEK-293 cell membranes expressing a rat mGluR5 receptor. The conditions noted are these: displacement of 4 nM [3H]-MPEP, HEK-293 cell membranes expressing rat mGluR5, 60 minute at room temperature; read-out: mGluR5 Ligand Binding DR Ki. An outline of the steps: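 Membranes from HEK-293 cells expressing rat mGluR5 incubated 60 min at room temperature in 50 mM Tris pH 7.5 with 4 nM [3H]-MPEP; 10 μM MPEP defines non-specific binding; filtration read-out. Single-point % inhibition at 10 μM, then Ki from IC50 via Cheng-Prusoff for actives.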

The target of experiment [1] is T2, metabotropic glutamate receptor 5 (Rattus norvegicus, UniProt P31424).
T2 construct: expressed in transfected cells; host or cells: HEK-293
T2 sequence (P31424 21-1203): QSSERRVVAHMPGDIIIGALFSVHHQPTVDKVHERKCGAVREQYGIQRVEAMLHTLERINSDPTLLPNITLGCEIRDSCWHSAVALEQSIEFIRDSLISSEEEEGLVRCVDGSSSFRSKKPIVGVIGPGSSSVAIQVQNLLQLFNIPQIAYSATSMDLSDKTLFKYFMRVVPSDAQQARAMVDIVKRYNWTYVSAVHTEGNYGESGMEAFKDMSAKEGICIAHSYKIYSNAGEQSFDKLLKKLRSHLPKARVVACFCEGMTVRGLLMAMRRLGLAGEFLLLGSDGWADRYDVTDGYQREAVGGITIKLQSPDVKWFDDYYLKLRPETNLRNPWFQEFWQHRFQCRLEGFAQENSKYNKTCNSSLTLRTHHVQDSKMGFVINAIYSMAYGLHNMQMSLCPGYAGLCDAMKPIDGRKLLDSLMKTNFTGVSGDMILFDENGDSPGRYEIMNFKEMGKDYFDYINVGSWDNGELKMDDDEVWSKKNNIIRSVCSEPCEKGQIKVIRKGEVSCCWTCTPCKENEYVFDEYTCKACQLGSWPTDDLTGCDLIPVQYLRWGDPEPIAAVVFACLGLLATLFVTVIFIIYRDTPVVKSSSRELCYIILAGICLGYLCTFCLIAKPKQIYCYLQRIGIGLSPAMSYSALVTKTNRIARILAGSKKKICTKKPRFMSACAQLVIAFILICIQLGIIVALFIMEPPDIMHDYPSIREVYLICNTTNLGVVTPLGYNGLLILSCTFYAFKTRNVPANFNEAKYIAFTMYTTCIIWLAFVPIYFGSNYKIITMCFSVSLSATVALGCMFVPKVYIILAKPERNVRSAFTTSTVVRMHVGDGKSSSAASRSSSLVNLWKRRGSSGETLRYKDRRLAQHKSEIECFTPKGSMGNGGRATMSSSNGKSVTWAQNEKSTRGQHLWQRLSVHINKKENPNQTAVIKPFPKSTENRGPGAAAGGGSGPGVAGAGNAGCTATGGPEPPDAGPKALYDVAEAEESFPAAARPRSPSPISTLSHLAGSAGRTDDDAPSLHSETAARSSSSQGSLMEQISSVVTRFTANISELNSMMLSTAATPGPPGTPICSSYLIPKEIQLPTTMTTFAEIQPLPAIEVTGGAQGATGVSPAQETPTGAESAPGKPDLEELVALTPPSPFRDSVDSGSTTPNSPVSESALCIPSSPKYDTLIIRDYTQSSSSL
Description: FLIPR Calcium 3 fluorescence-based functional assay of intracellular calcium, mGluR5 antagonist activity. Particulars: inhibition of glutamate (EC90, ~50 uM) stimulated calcium levels, mGluR5 HEK-293 cells; read-out: mGluR5 FLIPR MP Antagonist DR IC50. The class given is cell-based. In outline: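 mGluR5 HEK-293 cells (50,000/well, plated overnight) are loaded with FLIPR Calcium 3 dye for 1 h at 37 °C. Compound is added and fluorescence recorded on FLIPR. Inhibition of the glutamate-stimulated calcium signal is given as %, with IC50 from a 4-parameter logistic fit.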
(In general: A change in cytosolic calcium serves as a functional read-out for many receptors and channels.)

T1 sequence (P31424 21-1203): as above

Consider `CCOc1ccc(C(=O)N2CCc3ccccc3C2)cc1C#Cc1ccccn1` [Example 75, 2-[4-Ethoxy-3-(pyridin-2-ylethynyl)benzoyl]-1,2,3,4-tetrahydroisoquinoline], for which the Ki (usually a measure of affinity in units of concentration, obtained from inhibition or displacement) at rat mGluR5 receptor worked out at 3 nM. Also, in experiment [1], the half-maximal inhibitory concentration (IC50) (in general, the concentration that inhibits the measured activity by half) is 11 nM.

Consider `CCOc1ccc(C(=O)N2CCc3ccc(Cl)cc3C2)cc1C#Cc1ccccn1` [Example 76, 7-chloro-2-[4-ethoxy-3-(pyridin-2-ylethynyl)benzoyl]-1,2,3,4-tetrahydroisoquinoline], for which the Ki on rat mGluR5 receptor stood at 1 nM. For the same compound, the IC50 in experiment [1] amounted to 42 nM.

Consider `CCOc1ccc(C(=O)N2CCc3c(Cl)cccc3C2)cc1C#Cc1ccccn1` [Example 77, 5-chloro-2-[4-ethoxy-3-(pyridin-2-ylethynyl)benzoyl]-1,2,3,4-tetrahydroisoquinoline], for which, at rat mGluR5 receptor, the Ki stood at 1 nM. Moreover, the IC50 in experiment [1] worked out at 41 nM.

As for `CCOc1ccc(C(=O)N2Cc3ccccc3C2)cc1C#Cc1ccccn1` [Example 78, 2-[4-ethoxy-3-(pyridin-2-ylethynyl)benzoyl]isoindoline], at rat mGluR5 receptor, the Ki is 5 nM. In addition, the IC50 in experiment [1] is 12 nM.

As to `O=C(c1ccc(OCC2CC2)c(C#Cc2ccccn2)c1)N1CCc2ccccc2C1` [Example 79, 2-{[4-(Cyclopropylmethoxy)-3-(pyridin-2-ylethynyl)phenyl]carbonyl}-1,2,3,4-tetrahydroisoquinoline], on rat mGluR5 receptor, the Ki came to 23 nM. In addition, in experiment [1], the IC50 is 34 nM.

Consider `Cc1ccc(C(=O)N2Cc3ccccc3C2)cc1C#Cc1ccccn1` [Example 81, 2-[4-Methyl-3-(pyridin-2-ylethynyl)benzoyl]isoindoline], for which the Ki at rat mGluR5 receptor was 1 nM. In addition, the IC50 in experiment [1] came out at 26 nM.

For `Cc1ccc(C(=O)N2CCc3ccccc3C2)cc1C#Cc1ccccn1` [Example 82, 2-[4-Methyl-3-(pyridin-2-ylethynyl)benzoyl]-1,2,3,4-tetrahydroisoquinoline], the Ki at rat mGluR5 receptor is 1 nM. Also, the IC50 in experiment [1] came to 27 nM.

In the case of `Cc1ccc(C(=O)N2CCc3ccc(Cl)cc3C2)cc1C#Cc1ccccn1` [Example 83, 7-chloro-2-[4-methyl-3-(pyridin-2-ylethynyl)benzoyl]-1,2,3,4-tetrahydroisoquinoline], on rat mGluR5 receptor, the Ki was determined as 0.3 nM. In addition, the IC50 in experiment [1] amounted to 30 nM.

For `Cc1ccc(C(=O)N2CCc3c(Cl)cccc3C2)cc1C#Cc1ccccn1` [Example 84, 5-chloro-2-[4-methyl-3-(pyridin-2-ylethynyl)benzoyl]-1,2,3,4-tetrahydroisoquinoline], at rat mGluR5 receptor, the Ki turned out to be 0.3 nM. Moreover, the IC50 in experiment [1] amounted to 48 nM.

Turning to `Cc1ccc(C(=O)N2CCc3ncccc3C2)cc1C#Cc1ccccn1` [Example 85, 6-{[4-Methyl-3-(pyridin-2-ylethynyl)phenyl]carbonyl}-5,6,7,8-tetrahydro-1,6-naphthyridine], at rat mGluR5 receptor, the Ki turned out to be 4 nM. The IC50 in experiment [1] stood at 6 nM.

As for `Cc1ccc(C(=O)N2CCc3cccnc3C2)cc1C#Cc1ccccn1` [Example 86, 7-{[4-Methyl-3-(pyridin-2-ylethynyl)phenyl]carbonyl}-5,6,7,8-tetrahydro-1,7-naphthyridine], the Ki at rat mGluR5 receptor was 11 nM. For the same compound, the IC50 in experiment [1] stood at 8 nM.

As to `Cc1ccc(C(=O)N2CCc3nc[nH]c3C2)cc1C#Cc1ccccn1` [Example 87, 5-{[4-methyl-3-(pyridin-2-ylethynyl)phenyl]carbonyl}-4,5,6,7-tetrahydro-3H-imidazo[4,5-c]pyridine], at rat mGluR5 receptor, the Ki amounted to 14 nM. In addition, the IC50 in experiment [1] is 2 nM.

Take `Cc1ccc(C(=O)N2CCc3[nH]ncc3C2)cc1C#Cc1ccccn1` [Example 88, 5-{[4-methyl-3-(pyridin-2-ylethynyl)phenyl]carbonyl}-4,5,6,7-tetrahydro-1H-pyrazolo[4,3-c]pyridine]: at rat mGluR5 receptor, the Ki stood at 6 nM. In addition, the IC50 in experiment [1] was found to be 4 nM.

Regarding `Cc1nc2c(s1)CN(C(=O)c1ccc(C)c(C#Cc3ccccn3)c1)CC2` [Example 89, 2-methyl-5-{[4-methyl-3-(pyridin-2-ylethynyl)phenyl]carbonyl}-4,5,6,7-tetrahydro[1,3]thiazolo[5,4-c]pyridine], the Ki at rat mGluR5 receptor was 4 nM. The IC50 in experiment [1] was determined as 4 nM.

`Cc1nc2c(o1)CCN(C(=O)c1ccc(C)c(C#Cc3ccccn3)c1)C2` [Example 90, 2-methyl-5-{[4-methyl-3-(pyridin-2-ylethynyl)phenyl]carbonyl}-4,5,6,7-tetrahydro[1,3]oxazolo[4,5-c]pyridine]: the Ki on rat mGluR5 receptor was 16 nM. In addition, the IC50 in experiment [1] is 9 nM.

`Cc1ccc(C(=O)N2Cc3cccnc3C2)cc1C#Cc1ccccn1` [Example 91, 6-{[4-methyl-3-(pyridin-2-ylethynyl)phenyl]carbonyl}-6,7-dihydro-5H-pyrrolo[3,4-b]pyridine]: the Ki on rat mGluR5 receptor was found to be 6 nM. In addition, the IC50 in experiment [1] came out at 4 nM.

`O=C(c1ccc(C(F)(F)F)c(C#Cc2ccccn2)c1)N1Cc2cccnc2C1` [Example 92, 6-{[3-(Pyridin-2-ylethynyl)-4-(trifluoromethyl)phenyl]carbonyl}-6,7-dihydro-5H-pyrrolo[3,4-b]pyridine]: the Ki at rat mGluR5 receptor stood at 3 nM. In experiment [1], the IC50 stood at 7 nM.

In the case of `O=C(c1ccc(C(F)(F)F)c(C#Cc2ccccn2)c1)N1CCc2ccccc2C1` [Example 93, 2-{[3-(Pyridin-2-ylethynyl)-4-(trifluoromethyl)phenyl]carbonyl}-1,2,3,4-tetrahydroisoquinoline], at rat mGluR5 receptor, the Ki was found to be 2 nM. In addition, the IC50 in experiment [1] amounted to 42 nM.

In the case of `O=C(c1ccc(C(F)(F)F)c(C#Cc2ccccn2)c1)N1CCc2ccc(Cl)cc2C1` [Example 94, 7-Chloro-2-{[3-(pyridin-2-ylethynyl)-4-(trifluoromethyl)phenyl]carbonyl}-1,2,3,4-tetrahydroisoquinoline], the Ki on rat mGluR5 receptor is 2 nM. Also, in experiment [1], the IC50 was 152 nM.

Regarding `O=C(c1ccc(C(F)(F)F)c(C#Cc2ccccn2)c1)N1CCc2c(Cl)cccc2C1` [Example 95, 5-Chloro-2-{[3-(pyridin-2-ylethynyl)-4-(trifluoromethyl)phenyl]carbonyl}-1,2,3,4-tetrahydroisoquinoline], the Ki on rat mGluR5 receptor worked out at 4 nM. Besides, in experiment [1], the IC50 was determined as 163 nM.

For `O=C(c1ccc(C(F)(F)F)c(C#Cc2ccccn2)c1)N1Cc2ccccc2C1` [Example 96, 2-{[3-(Pyridin-2-ylethynyl)-4-(trifluoromethyl)phenyl]carbonyl}-2,3-dihydro-1H-isoindole], on rat mGluR5 receptor, the inhibition constant Ki is 5 nM. The IC50 in experiment [1] amounted to 69 nM.

Take `O=C(c1ccc(C(F)(F)F)c(C#Cc2ccccn2)c1)N1CCc2ncc(Br)cc2C1` [Example 97, 3-Bromo-6-{[3-(pyridin-2-ylethynyl)-4-(trifluoromethyl)phenyl]carbonyl}-5,6,7,8-tetrahydro-1,6-naphthyridine]: at rat mGluR5 receptor, the Ki stood at 1 nM. Besides, the IC50 in experiment [1] turned out to be 13 nM.

For the compound `O=C(c1ccc(C(F)(F)F)c(C#Cc2ccccn2)c1)N1CCc2ncccc2C1` [Example 98, 6-{[3-(Pyridin-2-ylethynyl)-4-(trifluoromethyl)phenyl]carbonyl}-5,6,7,8-tetrahydro-1,6-naphthyridine], at rat mGluR5 receptor, the Ki was 4 nM. Moreover, the IC50 in experiment [1] was 7 nM.

`O=C(c1ccc(C(F)(F)F)c(C#Cc2ccccn2)c1)N1CCc2[nH]ncc2C1` [Example 100, 5-{[3-(Pyridin-2-ylethynyl)-4-(trifluoromethyl)phenyl]carbonyl}-4,5,6,7-tetrahydro-1H-pyrazolo[4,3-c]pyridine]: the Ki at rat mGluR5 receptor is 4 nM. For the same compound, the IC50 in experiment [1] came out at 5 nM.

`O=C(c1ccc(C(F)(F)F)c(C#Cc2ccccn2)c1)N1CCc2[nH]cnc2C1` [Example 101, 5-{[3-(Pyridin-2-ylethynyl)-4-(trifluoromethyl)phenyl]carbonyl}-4,5,6,7-tetrahydro-1H-imidazo[4,5-c]pyridine]: the Ki on rat mGluR5 receptor stood at 36 nM. Also, the IC50 in experiment [1] is 18 nM.
